Data as given in PMC5034043 (The Journal of Biological Chemistry, 2016).
Read-outs that look alike come from different tables or passages of the source.

Test system: T1, synaptosomal proteome
T1 construct: from tissue; host or cells: brain synaptosomes of male C57/B6 mice
Assay type: binding, mouse
Protocol: Synaptosomes were resuspended to 1 mg of protein/ml in HEPES buffer medium (in mM: 140 NaCl, 5 KCl, 5 NaHCO3, 1.2 NaH2PO4, 1 MgCl2, 10 glucose, and 10 HEPES (pH 7.4)). […] The samples were allowed to equilibrate for 5 min before being transferred to a parafilm-sealed 1-mm path length quartz cuvette. The sample was then irradiated for 20 min at a peak bandwidth of 350 nm (Rayonet RPR-3500 lamp) ∼6 cm from the light source. Non-irradiated samples were left in the dark at ambient temperature (22–25 °C) for 20 min. All remaining procedures were conducted with restricted light exposure.
To 750 μg of photolabeled or control synaptosome samples, 40 μl of 10% SDS and 2 μl of 5 mM DTT in water were added. Samples were then vortexed, heated for 10 min at 65 °C, and then briefly cooled. Final concentrations of 150 μM azide-biotin (Click Chemistry Tools), 2 mM tris(3-hydroxypropyltriazolylmethyl)amine (Sigma), 1 mM ascorbic acid (Sigma), and 1 mM CuSO4·5H2O (Sigma) were added to each sample and vortexed vigorously. The samples were left in the dark at ambient temperature (22–25 °C) for 1 h with mild agitation. Directly to each sample 4× volume chilled methanol, 1.5× chilled chloroform, and 3× chilled double distilled H2O were added. Samples were vortexed vigorously and centrifuged at 1,400 × g for 30 min at 4 °C. Both liquid layers were carefully removed, and the protein pellet was washed with 2 ml of 1:1 (v/v) chilled methanol/chloroform. Samples were centrifuged at 3,500 × g for 30 min at 4 °C. Protein pellets were briefly air-dried before further processing.
750 μg of biotin-conjugated protein sample was resuspended in 500 μl of 25 mM NH4HCO3 and 6 M urea in water. Next, 150 μl of 5% Triton X-100 in water, 50 μl of 10% SDS in water, and 1.5 μl of 0.5 M DTT were added. The samples were heated for 15 min at 65 °C. After briefly cooling, 14 μl of 0.5 M iodoacetamide in water was added, and the sample was left in the dark for 45 min. […] The supernatant was diluted to 4 ml with PBS, and 2 ml of PBS containing 100 μl of 50% streptavidin-agarose resin (Thermo Scientific) was added. Biotinylated proteins within the sample were captured over resin overnight at 4 °C with mild agitation. The resin was first washed with 6 ml of 1% SDS in PBS, and then 7 ml of 0.1 M urea in PBS followed by 10 ml of PBS. The resin underwent a final wash with 0.9 ml of 50 mM Tris-HCl and 1 mM CaCl2 in water (pH 8.0) and then resuspended in 200 μl of 50 mM Tris-HCl, 1 mM CaCl2 in water (pH 8.0), and 2 μg of porcine sequencing grade trypsin (Promega). Samples were digested overnight at 37 °C. Samples were then centrifuged at 2,000 × g for 4 min, and digest supernatant was decanted. Beads were washed in 100 μl of PBS centrifuged at 5,200 × g for 5 min, and the wash was combined with the digest supernatant. To the combined sample, trifluoroacetic acid (TFA) was added to 0.4% (v/v) or until pH <2. The sample was desalted with Oasis C18 10-mg columns (Waters) as described previously ([66]). The eluted sample was dried by speed vac and resuspended in 0.1 M HEPES buffer (pH 8.5). […] Appropriate corresponding TMTsixplex^TM-labeled samples were pooled and dried by speed vac. The combined samples were resuspended in 0.5% acetic acid in water and pH-corrected with acetic acid until pH was <2. 40 μg of protein was desalted with C18 stage tips prepared in-house and dried by speed vac.
Samples were resuspended in 10 mM KH2PO4 (pH 2.6), 30% acetonitrile (v/v) in water, and fractionated by off-line strong cation exchange chromatography prior to mass spectrometry (MS) analysis similar to as reported previously ([66]). The full synaptosome proteome control was prepared similarly without TMTsixplex^TM labeling.
All TMT samples were analyzed with three-stage mass spectrometry (MS3) TMTsixplex^TM quantification workflow as described previously ([34]).

[1] = protein A2AGI3 Neuroligin-3 (Nlgn3)
[2] = protein A2AWI7 Endophilin-B2 (Sh3glb2)
[3] = protein D3Z5T2 Armadillo repeat-containing protein 10 (Armc10)
[4] = protein E9Q3V6 Septin-2 (Sept2)
[5] = protein F7C846 Metaxin-1 (Mtx1)
[6] = protein F8WGD9 1-acyl-sn-glycerol-3-phosphate acyltransferase epsilon (Agpat5)
[7] = protein G3UYZ1 Immunoglobulin superfamily member 8 (Igsf8)
[8] = protein G5E829 Plasma membrane calcium-transporting ATPase 1 (Atp2b1)
[9] = protein O09111 NADH dehydrogenase [ubiquinone] 1 beta subcomplex subunit 11, mitochondrial (Ndufb11)
[10] = protein O35114 Lysosome membrane protein 2 (Scarb2)
[11] = protein O35526 Syntaxin-1A (Stx1a)
[12] = protein O35874 Neutral amino acid transporter A (Slc1a4)

C#CCOCc1ccc(C2(C(F)(F)F)N=N2)cc1O [AziPm-click (1), 2-((prop-2-yn-1-yloxy)methyl)-5-(3-(trifluoromethyl)-3H-diazirin-3-yl)phenol]
Log2( Mean 'UV/ No UV') (B1AU25 Aifm1): 4.01 | TMT Ratio Mean 'UV/ No UV' (B1AU25 Aifm1): 16.13 | Log2( Mean 'UV/ No UV') (O35633-2 Slc32a1): 4.34 | Log2( Mean 'UV/ No UV') (O35678 Mgll): 4.63 | TMT Ratio Mean 'UV/ No UV' (O35678 Mgll): 24.71 | Log2( Mean 'UV/ No UV') (P07724 Alb): 4.39 | TMT Ratio Mean 'UV/ No UV' (P07724 Alb): 20.95 | Log2( Mean 'UV/ No UV') (P08226 Apoe): 3.80 | TMT Ratio Mean 'UV/ No UV' (P08226 Apoe): 13.94 | Log2( Mean 'UV/ No UV') (P17665 Cox7c): 4.31 | TMT Ratio Mean 'UV/ No UV' (P17665 Cox7c): 19.82 | Log2( Mean 'UV/ No UV') (P19157 Gstp1): 3.61 | TMT Ratio Mean 'UV/ No UV' (P19157 Gstp1): 12.21 | Log2( Mean 'UV/ No UV') (P23242 Gja1): 3.58 | TMT Ratio Mean 'UV/ No UV' (P23242 Gja1): 11.95 | Log2( Mean 'UV/ No UV') (P31648 Slc6a1): 4.60 | TMT Ratio Mean 'UV/ No UV' (P31648 Slc6a1): 24.21 | Log2( Mean 'UV/ No UV') (P35279 Rab6a): 3.67 | TMT Ratio Mean 'UV/ No UV' (P35279 Rab6a): 12.71 | Log2( Mean 'UV/ No UV') (P40237 Cd82): 3.95 | TMT Ratio Mean 'UV/ No UV' (P40237 Cd82): 15.49 | Log2( Mean 'UV/ No UV') (P42125 Eci1): 4.01 | TMT Ratio Mean 'UV/ No UV' (P42125 Eci1): 16.13 | Log2( Mean 'UV/ No UV') (P51150 Rab7a): 3.54 | TMT Ratio Mean 'UV/ No UV' (P51150 Rab7a): 11.65 | Log2( Mean 'UV/ No UV') (P60879-2 Snap25): 4.57 | Log2( Mean 'UV/ No UV') (P61294 Rab6b): 3.78 | TMT Ratio Mean 'UV/ No UV' (P61294 Rab6b): 13.75 | Log2( Mean 'UV/ No UV') (P61620 Sec61a1): 4.06 | TMT Ratio Mean 'UV/ No UV' (P61620 Sec61a1): 16.63 | Log2( Mean 'UV/ No UV') (P63011 Rab3a): 3.83 | TMT Ratio Mean 'UV/ No UV' (P63011 Rab3a): 14.19 | Log2( Mean 'UV/ No UV') (P63037 Dnaja1): 3.64 | TMT Ratio Mean 'UV/ No UV' (P63037 Dnaja1): 12.46 | Log2( Mean 'UV/ No UV') (P63213 Gng2): 3.65 | TMT Ratio Mean 'UV/ No UV' (P63213 Gng2): 12.51 | Log2( Mean 'UV/ No UV') (Q5ICG5 Acsl6): 3.88 | TMT Ratio Mean 'UV/ No UV' (Q5ICG5 Acsl6): 14.71 | Log2( Mean 'UV/ No UV') (Q5SW88 Rab1): 3.58 | TMT Ratio Mean 'UV/ No UV' (Q5SW88 Rab1): 11.95 | Log2( Mean 'UV/ No UV') (Q8BXV2 Bri3bp): 3.89 | TMT Ratio Mean 'UV/ No UV' (Q8BXV2 Bri3bp): 14.84 | Log2( Mean 'UV/ No UV') (Q8C3X2 Ccdc90b): 4.00 | TMT Ratio Mean 'UV/ No UV' (Q8C3X2 Ccdc90b): 16.04 | Log2( Mean 'UV/ No UV') (Q8K4X7 Agpat4): 4.25 | TMT Ratio Mean 'UV/ No UV' (Q8K4X7 Agpat4): 18.96 | Log2( Mean 'UV/ No UV') (Q8R5J9 Arl6ip5): 4.56 | TMT Ratio Mean 'UV/ No UV' (Q8R5J9 Arl6ip5): 23.65 | Log2( Mean 'UV/ No UV') (Q9CXJ4 Abcb8): 3.93 | TMT Ratio Mean 'UV/ No UV' (Q9CXJ4 Abcb8): 15.28 | Log2( Mean 'UV/ No UV') (Q9CZS1 Aldh1b1): 4.40 | TMT Ratio Mean 'UV/ No UV' (Q9CZS1 Aldh1b1): 21.11 | Log2( Mean 'UV/ No UV') (Q9CZT8 Rab3b): 3.73 | TMT Ratio Mean 'UV/ No UV' (Q9CZT8 Rab3b): 13.26 | Log2( Mean 'UV/ No UV') (Q9D5T0 Atad1): 3.65 | TMT Ratio Mean 'UV/ No UV' (Q9D5T0 Atad1): 12.57 | Log2( Mean 'UV/ No UV') (Q9EP69 Sacm1l): 4.04 | TMT Ratio Mean 'UV/ No UV' (Q9EP69 Sacm1l): 16.45 | Log2( Mean 'UV/ No UV') (Q9ER00 Stx12): 3.85 | TMT Ratio Mean 'UV/ No UV' (Q9ER00 Stx12): 14.40 | Log2( Mean 'UV/ No UV') (Q9Z2I0 Letm1): 4.32 | TMT Ratio Mean 'UV/ No UV' (Q9Z2I0 Letm1): 19.93 | Log2( Mean 'UV/ No UV') (Q80ZW2 Them6): 4.50 | TMT Ratio Mean 'UV/ No UV' (Q80ZW2 Them6): 22.62 | Log2( Mean 'UV/ No UV') (Q99JY8 Ppap2b): 4.16 | TMT Ratio Mean 'UV/ No UV' (Q99JY8 Ppap2b): 17.86 | Log2( Mean 'UV/ No UV') (Q00915 Rbp1): 4.46 | TMT Ratio Mean 'UV/ No UV' (Q00915 Rbp1): 22.07 | Log2( Mean 'UV/ No UV') (Q60771 Cldn11): 4.48 | TMT Ratio Mean 'UV/ No UV' (Q60771 Cldn11): 22.33 | Log2( Mean 'UV/ No UV') [1]: 3.89 | TMT Ratio Mean 'UV/ No UV' [1]: 14.80 | Log2( Mean 'UV/ No UV') [2]: 3.55 | TMT Ratio Mean 'UV/ No UV' [2]: 11.67 | Log2( Mean 'UV/ No UV') [3]: 3.94 | TMT Ratio Mean 'UV/ No UV' [3]: 15.34 | Log2( Mean 'UV/ No UV') [4]: 4.02 | TMT Ratio Mean 'UV/ No UV' [4]: 16.25 | Log2( Mean 'UV/ No UV') [5]: 4.31 | TMT Ratio Mean 'UV/ No UV' [5]: 19.87 | Log2( Mean 'UV/ No UV') [6]: 4.62 | TMT Ratio Mean 'UV/ No UV' [6]: 24.62 | Log2( Mean 'UV/ No UV') [7]: 3.89 | TMT Ratio Mean 'UV/ No UV' [7]: 14.81 | Log2( Mean 'UV/ No UV') [8]: 3.59 | TMT Ratio Mean 'UV/ No UV' [8]: 12.05 | Log2( Mean 'UV/ No UV') [9]: 3.68 | TMT Ratio Mean 'UV/ No UV' [9]: 12.78 | Log2( Mean 'UV/ No UV') [10]: 4.27 | TMT Ratio Mean 'UV/ No UV' [10]: 19.35 | Log2( Mean 'UV/ No UV') [11]: 3.50 | TMT Ratio Mean 'UV/ No UV' [11]: 11.31 | Log2( Mean 'UV/ No UV') [12]: 4.57 | TMT Ratio Mean 'UV/ No UV' [12]: 23.78 | Log2( Mean 'UV/ No UV') (protein O35963 Ras-related protein Rab-33B (Rab33b)): 4.02
